The text below walks through data of patent US11084800B2 (Achillion Pharmaceuticals, Inc., priority 2017, dated 2021).

Chain of Human Factor D (P00746 26-253): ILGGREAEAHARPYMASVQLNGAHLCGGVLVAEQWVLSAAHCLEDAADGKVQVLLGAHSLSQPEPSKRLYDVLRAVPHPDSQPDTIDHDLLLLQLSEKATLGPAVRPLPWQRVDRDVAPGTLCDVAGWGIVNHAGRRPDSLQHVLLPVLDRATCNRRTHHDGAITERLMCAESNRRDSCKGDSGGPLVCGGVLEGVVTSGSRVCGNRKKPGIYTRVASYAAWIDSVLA

The first assay has as its target Human Factor D (Homo sapiens (Human), UniProt P00746). Kind of assay: Human Factor D Assay. The format is biochemical. To be noted: Factor D inhibition, assay of Example 10; read-out: IC5 (Stars). The essentials:
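Thioester substrate Z-L-Lys-SBz (100 μM) with Ellman's reagent DTNB (100 μM) reports activity of 80 nM human serum-derived enzyme, kinetically at 405 nm over 30 min. Compound preincubated 5 min, room temperature, pH 7.5 Tris/1 M NaCl; IC50 by nonlinear fit of rates.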
As for `CC(=O)c1nn(CC(=O)N2[C@H](C(=O)Nc3nc(Br)ccc3CN3C(C)(C)CCCC3(C)C)C[C@@]3(C)C[C@@H]23)c2ccc(-c3cnc(C)nc3)cc12` [Compound 302, (1R,3S,5R)-2-(2-(3-acetyl-5-(2-methylpyrimidin-5-yl)-1H-indazol-1-yl)acetyl)-N-(6-bromo-3-((2,2,6,6-tetramethylpiperidin-1-yl)methyl)pyridin-2-yl)-5-methyl-2-azabicyclo[3.1.0]hexane-3-carboxamide], the IC50 was under 1000 nM.
The same measure, in the same setting: then `CC(=O)c1nn(CC(=O)N2C[C@@](F)(Cn3ccnn3)C[C@H]2C(=O)Nc2nc(Br)ccc2C)c2ccc(-c3cnc(C)nc3)cc12` [Compound 304, (2S,4R)-4-((1H-1,2,3-triazol-1-yl)methyl)-1-(2-(3-acetyl-5-(2-methylpyrimidin-5-yl)-1H-indazol-1-yl)acetyl)-N-(6-bromo-3-methylpyridin-2-yl)-4-fluoropyrrolidine-2-carboxamide], with under 1000 nM.
With `CC(=O)c1nn(CC(=O)N2[C@H](C(=O)Nc3nc(Br)ccc3C)C[C@@]3(CN4CCOCC4)C[C@@H]23)c2c(C)cc(-c3cnc(C)nc3)cc12` [Compound 305, (1R,3S,5R)-2-(2-(3-acetyl-7-methyl-5-(2-methylpyrimidin-5-yl)-1H-indazol-1-yl)acetyl)-N-(6-bromo-3-methylpyridin-2-yl)-5-(morpholinomethyl)-2-azabicyclo[3.1.0]hexane-3-carboxamide], the IC50 was under 1000 nM.
For `CC(=O)c1nn(CC(=O)N2[C@H](C(=O)Nc3nc(Br)ccc3C)C[C@@]3(CN4CCC(F)(F)CC4)C[C@@H]23)c2c(C)cc(-c3cnc(C)nc3)cc12` [Compound 306, (1R,3S,5R)-2-(2-(3-acetyl-7-methyl-5-(2-methylpyrimidin-5-yl)-1H-indazol-1-yl)acetyl)-N-(6-bromo-3-methylpyridin-2-yl)-5-((4,4-difluoropiperidin-1-yl)methyl)-2-azabicyclo[3.1.0]hexane-3-carboxamide], the IC50 was under 1000 nM.
Regarding `CC(=O)c1nn(CC(=O)N2[C@H](C(=O)Nc3nc(Br)ccc3C)C[C@@]3(CNC(C)(C)C)C[C@@H]23)c2ccc(-c3cnc(C)nc3)cc12` [Compound 307, (1R,3S,5R)-2-(2-(3-acetyl-5-(2-methylpyrimidin-5-yl)-1H-indazol-1-yl)acetyl)-N-(6-bromo-3-methylpyridin-2-yl)-5-((tert-butylamino)methyl)-2-azabicyclo[3.1.0]hexane-3-carboxamide], the IC50 is under 1000 nM.
The same measure, in the same setting: in the case of `CC(=O)c1nn(CC(=O)N2[C@H](C(=O)Nc3nc(Br)ccc3CN3CC4CCC3C4)C[C@@]3(C)C[C@@H]23)c2ccc(-c3cnc(C)nc3)cc12` (stereo partly drawn) [Compound 308, (1R,3S,5R)-N-(3-(2-azabicyclo[2.2.1]heptan-2-ylmethyl)-6-bromopyridin-2-yl)-2-(2-(3-acetyl-5-(2-methylpyrimidin-5-yl)-1H-indazol-1-yl)acetyl)-5-methyl-2-azabicyclo[3.1.0]hexane-3-carboxamide] it was under 1000 nM.
The same measure, in the same setting: in the case of `CC(=O)c1nn(CC(=O)N2[C@H](C(=O)Nc3nc(Br)ccc3C)C[C@@]3(c4cn(C(C)C)nn4)C[C@@H]23)c2ccc(-c3cnc(C)nc3)cc12` [Compound 309, (1R,3S,5S)-2-(2-(3-acetyl-5-(2-methylpyrimidin-5-yl)-1H-indazol-1-yl)acetyl)-N-(6-bromo-3-methylpyridin-2-yl)-5-(1-isopropyl-1H-1,2,3-triazol-4-yl)-2-azabicyclo[3.1.0]hexane-3-carboxamide] it was under 1000 nM; in that of `CC(=O)c1nn(CC(=O)N2[C@H](C(=O)Nc3nc(Br)ccc3C)C[C@@]3(Cn4cccn4)C[C@@H]23)c2ccc(-c3cnc(C)nc3)cc12` [Compound 310, (1R,3S,5R)-5-((1H-Pyrazol-1-yl)methyl)-2-(2-(3-acetyl-5-(2-methylpyrimidin-5-yl)-1H-indazol-1-yl)acetyl)-N-(6-bromo-3-methylpyridin-2-yl)-2-azabicyclo[3.1.0]hexane-3-carboxamide], under 1000 nM.
Still for that read-out and setting: then `CC(=O)c1nn(CC(=O)N2[C@H](C(=O)Nc3nc(Br)ccc3C)C[C@@]3(Cn4ccc(C(C)(C)C)n4)C[C@@H]23)c2ccc(-c3cnc(C)nc3)cc12` [Compound 311, (1R,3S,5R)-2-(2-(3-acetyl-5-(2-methylpyrimidin-5-yl)-1H-indazol-1-yl)acetyl)-N-(6-bromo-3-methylpyridin-2-yl)-5-((3-(tert-butyl)-1H-pyrazol-1-yl)methyl)-2-azabicyclo[3.1.0]hexane-3-carboxamide], with under 1000 nM; and `CC(=O)c1nn(CC(=O)N2[C@H](C(=O)Nc3nc(Br)ccc3C)C[C@@]3(Cn4cncn4)C[C@@H]23)c2ccc(-c3cnc(C)nc3)cc12` [Compound 312, (1R,3S,5R)-5-((1H-1,2,4-triazol-1-yl)methyl)-2-(2-(3-acetyl-5-(2-methylpyrimidin-5-yl)-1H-indazol-1-yl)acetyl)-N-(6-bromo-3-methylpyridin-2-yl)-2-azabicyclo[3.1.0]hexane-3-carboxamide], with under 1000 nM; and `CC(=O)c1nn(CC(=O)N2[C@H](C(=O)Nc3nc(Br)ccc3C)C[C@@]3(Cn4cncn4)C[C@@H]23)c2cnc(-c3cnc(C)nc3)cc12` [Compound 313, (1R,3S,5R)-5-((1H-1,2,4-triazol-1-yl)methyl)-2-(2-(3-acetyl-5-(2-methylpyrimidin-5-yl)-1H-pyrazolo[3,4-c]pyridin-1-yl)acetyl)-N-(6-bromo-3-methylpyridin-2-yl)-2-azabicyclo[3.1.0]hexane-3-carboxamide], with under 1000 nM.
`CC(=O)c1nn(CC(=O)N2[C@H](C(=O)Nc3nc(Br)ccc3C)C[C@@]3(Cn4cnc(C)c4)C[C@@H]23)c2ccc(-c3cnc(C)nc3)cc12` [Compound 314, (1R,3S,5R)-2-(2-(3-Acetyl-5-(2-methylpyrimidin-5-yl)-1H-indazol-1-yl)acetyl)-N-(6-bromo-3-methylpyridin-2-yl)-5-((4-methyl-1H-imidazol-1-yl)methyl)-2-azabicyclo[3.1.0]hexane-3-carboxamide]: the IC50 is under 1000 nM.
Still for that read-out and setting: in the case of `CC(=O)c1nn(CC(=O)N2[C@@H](C(=O)Nc3nc(Br)ccc3C)C[C@@]3(Cn4cnc(C)c4)C[C@@H]23)c2ccc(-c3cnc(C)nc3)cc12` [Compound 315, (1R,3R,5R)-2-(2-(3-Acetyl-5-(2-methylpyrimidin-5-yl)-1H-indazol-1-yl)acetyl)-N-(6-bromo-3-methylpyridin-2-yl)-5-((4-methyl-1H-imidazol-1-yl)methyl)-2-azabicyclo[3.1.0]hexane-3-carboxamide] it was 1000 to 10000 nM; in that of `CCc1cc(-c2cnc(C)nc2)cc2c(C(C)=O)nn(CC(=O)N3[C@H](C(=O)Nc4nc(Br)ccc4C)C[C@@]4(CN(C)C)C[C@@H]34)c12` [Compound 316, (1R,3S,5R)-2-(2-(3-acetyl-7-ethyl-5-(2-methylpyrimidin-5-yl)-1H-indazol-1-yl)acetyl)-N-(6-bromo-3-methylpyridin-2-yl)-5-((dimethylamino)methyl)-2-azabicyclo[3.1.0]hexane-3-carboxamide], under 1000 nM; in that of `CC(=O)c1nn(CC(=O)N2[C@H](C(=O)Nc3nc(Br)ccc3CN3CCC(C)(F)CC3)C[C@@]3(C)C[C@@H]23)c2ccc(-c3cnc(C)nc3)cc12` [Compound 322, (1R,3S,5R)-2-(2-(3-acetyl-5-(2-methylpyrimidin-5-yl)-1H-indazol-1-yl)acetyl)-N-(6-bromo-3-((4-fluoro-4-methylpiperidin-1-yl)methyl)pyridin-2-yl)-5-methyl-2-azabicyclo[3.1.0]hexane-3-carboxamide], under 1000 nM.
Still for that read-out and setting: in the case of `CC(=O)c1nn(CC(=O)N2[C@H](C(=O)Nc3nc(Br)ccc3C)C[C@@]3(CN(C)C)C[C@@H]23)c2c(C(F)CF)cc(-c3cnc(C)nc3)cc12` (stereo partly drawn) [Compound 325, (1R,3S,5R)-2-(2-(3-acetyl-7-(1,2-difluoroethyl)-5-(2-methylpyrimidin-5-yl)-1H-indazol-1-yl)acetyl)-N-(6-bromo-3-methylpyridin-2-yl)-5-((dimethylamino)methyl)-2-azabicyclo[3.1.0]hexane-3-carboxamide] it was under 1000 nM; in that of `CC(=O)c1nn(CC(=O)N2[C@H](C(=O)Nc3nc(Br)ccc3C)C[C@@]3(CCC(F)F)C[C@@H]23)c2cnc(-c3cnc(C)nc3)cc12` [Compound 327], under 1000 nM; in that of `CC(=O)c1nn(CC(=O)N2[C@H](C(=O)Nc3nc(Br)ccc3C)C[C@@]3(C)C[C@@H]23)c2ccc(-c3cnc(C)nc3C)cc12` [Compound 331, (1R,3S,5R)-2-(2-(3-acetyl-5-(2,4-dimethylpyrimidin-5-yl)-1H-indazol-1-yl)acetyl)-N-(6-bromo-3-methylpyridin-2-yl)-5-methyl-2-azabicyclo[3.1.0]hexane-3-carboxamide], under 1000 nM.

Staying with this assay, now noted: Table 8; Factor D 80 nM, substrate Z-L-Lys-SBz; read-out: IC50.
As to `CC(=O)c1nn(CC(=O)N2[C@H](C(=O)Nc3nc(Br)ccc3C)C[C@@]3(CN(C)C)C[C@@H]23)c2c(C3CC3)cc(-c3cnc(C)nc3)cc12` [Compound 317, (1R,3S,5R)-2-(2-(3-acetyl-7-cyclopropyl-5-(2-methylpyrimidin-5-yl)-1H-indazol-1-yl)acetyl)-N-(6-bromo-3-methylpyridin-2-yl)-5-((dimethylamino)methyl)-2-azabicyclo[3.1.0]hexane-3-carboxamide], the IC50 is under 1000 nM.
Take `CC(=O)c1nn(CC(=O)N2[C@H](C(=O)Nc3nc(Br)ccc3C)C[C@@]3(CN(C)C)C[C@@H]23)c2c(C(F)(F)F)cc(-c3cnc(C)nc3)cc12` [Compound 318, (1R,3S,5R)-2-(2-(3-acetyl-5-(2-methylpyrimidin-5-yl)-7-(trifluoromethyl)-1H-indazol-1-yl)acetyl)-N-(6-bromo-3-methylpyridin-2-yl)-5-((dimethylamino)methyl)-2-azabicyclo[3.1.0]hexane-3-carboxamide]: the IC50 is under 1000 nM.
Still for that read-out and setting: in the case of `COC(=O)CCCCCCCCCCCCCCCCC(=O)N[C@@H](CCC(=O)NCCOCCOCC(=O)NCCOCCOCC(=O)NCc1ncc(-c2ccc3c(c2)c(C(C)=O)nn3CC(=O)N2[C@H](C(=O)Nc3nc(Br)ccc3C)C[C@@]3(C)C[C@@H]23)cn1)C(=O)OC` [Compound 329] it was under 1000 nM.
